Columns and labels:
essential tremor = settings: cited from earlier work; for Efficacy for treating essential tremors in clinical trials: adverse effects led to patient discontinuance
[1] = cited from earlier work
[2] = Phase 1 single and multiple ascending doses of formulation 3: safety and tolerability; type: in vivo, human; settings: single 60 mg, 6 healthy volunteers, no titration
Method: This was a 2-part, Phase 1 double blind, placebo controlled trial to assess the safety, tolerability, pharmacokinetics, and pharmacodynamics (including the KSS, the KDT, the SQSQ and 24-hour EEG recordings), of single, ascending (Part A: 20, 40, and 60 mg) and multiple, ascending (Part B: 20 and 40 mg for 8 days) doses of the 20 mg tablet (formulation 3) in healthy participants. […] Variability in Cmax and AUC increased with increasing dose following a single oral dose of the 20 mg tablet formulation (formulation 3) (FIG. 16).
Adverse events for the doses of 20 and 40 mg were transient and occurred at a rate similar to placebo. The following TEAEs were observed, all of which were mild to moderate: […]

[3] = Within-participant escalating dose trial Part A (5, 10, 20 mg): plasma pharmacokinetics; type: in vivo, human
Method: (§1) In Part A, an open label trial was conducted.

[4] = Within-participant escalating dose trial Part A: safety and tolerability (TEAEs); type: in vivo, human
Method: as §1

[5] = Within-participant escalating dose trial Part B: safety and tolerability (TEAEs); type: in vivo, human
[6] = Within-participant escalating dose trial Part B (20-120 mg titration): pharmacokinetics; settings: titrated dosing schedule
Method: A trial was conducted to study the safety, tolerability, pharmacokinetics and pharmacodynamics of the compound of formula (I) in healthy participants. Each participant completed 3 study periods: Screening, Treatment period (12 or 31 days), and Safety follow-up.
In Part B, a randomized controlled trial was conducted. […] Patients were allowed to receive the compound of formula (I) daily at each of 60 mg, 80 mg, and 100 mg dose levels for an extended period of up to 2 days.
Patients were discharged on D33 after all study assessments were completed and scheduled for Safety Follow-up on Day 36 (±1 day) via telephone call. Pharmacokinetics of the compound of formula (I) was evaluated by performing LC/MS quantification of levels of the compound in plasma and urine. […] Phamacokinetic parameters determined for the compound of formula (I) include, but are not limited to, AUCt, AUCinf, AUCtau, Cmax, tmax, t1/2, CL/F and Vd/F.

[7] = 28-day essential tremor study (WO 2020/072773)

CC(C)c1ccc(CC(=O)N[C@H](C)c2ccc(OCC(F)(F)F)cn2)cc1 [CX-8998]
Discontinuation due to intolerability of adverse events (essential tremor; [7]): 17% | Discontinuation rate (essential tremor; [7]): 23% | Titrated daily dose reached ([1]; Papapetropoulos et al. 2019, 2021): 20 mg | Highest non-titrated dose safely administered to patients ([1]; single doses, WO 2020/072773): 16 mg

CC(C)(C)NC(=O)CN1CCC(CNC(=O)c2cc(F)cc(Cl)c2)CC1 [compound of formula (I), N-((1-(2-(tert-butylamino)-2-oxoethyl)piperidin-4-yl)methyl)-3-chloro-5-fluorobenzamide]
Tolerability [2]: not tolerated | Time the compound remained quantifiable in plasma ([3]; 5 mg dose, 24 hour sampling period): ≥ 24 h | Time by which plasma concentrations were quantifiable ([3]; single 5 mg dose, healthy volunteers): ≤ 0.50 h | Participants with at least one TEAE ([4]; 5 mg (N = 8)): 5 (62.5%) n (%) | TEAE: Dry eye ([4]; 5 mg (N = 8)): 1 (12.5%) n (%) | TEAE: Eye disorders ([4]; 5 mg (N = 8)): 2 (25.0%) n (%) | TEAE: General Disorders and Administration Site Conditions ([4]; 5 mg (N = 8)): 3 (37.5%) n (%) | TEAE: Headache ([4]; 5 mg (N = 8)): 2 (25.0%) n (%) | TEAE: Lethargy ([4]; 5 mg (N = 8)): 1 (12.5%) n (%) | TEAE: Medical device site dermatitis ([4]; 5 mg (N = 8)): 1 (12.5%) n (%) | TEAE: Nervous System Disorders ([4]; 5 mg (N = 8)): 2 (25.0%) n (%) | TEAE: Vessel puncture site thrombosis ([4]; 5 mg (N = 8)): 1 (12.5%) n (%) | Participants with at least one TEAE ([4]; 10 mg (N = 8)): 5 (62.5%) n (%) | TEAE: Dry eye ([4]; 10 mg (N = 8)): 2 (25.0%) n (%) | TEAE: Eye disorders ([4]; 10 mg (N = 8)): 2 (25.0%) n (%) | TEAE: General Disorders and Administration Site Conditions ([4]; 10 mg (N = 8)): 3 (37.5%) n (%) | TEAE: Headache ([4]; 10 mg (N = 8)): 0 n (%) | TEAE: Lethargy ([4]; 10 mg (N = 8)): 0 n (%) | TEAE: Medical device site dermatitis ([4]; 10 mg (N = 8)): 2 (25.0%) n (%) | TEAE: Nervous System Disorders ([4]; 10 mg (N = 8)): 0 n (%) | TEAE: Vessel puncture site thrombosis ([4]; 10 mg (N = 8)): 1 (12.5%) n (%) | Participants with at least one TEAE ([4]; 20 mg (N = 8)): 3 (37.5%) n (%) | TEAE: Dry eye ([4]; 20 mg (N = 8)): 0 n (%) | TEAE: Eye disorders ([4]; 20 mg (N = 8)): 0 n (%) | TEAE: General Disorders and Administration Site Conditions ([4]; 20 mg (N = 8)): 1 (12.5%) n (%) | TEAE: Headache ([4]; 20 mg (N = 8)): 1 (12.5%) n (%) | TEAE: Medical device site dermatitis ([4]; 20 mg (N = 8)): 0 n (%) | TEAE: Nervous System Disorders ([4]; 20 mg (N = 8)): 1 (12.5%) n (%) | TEAE: Vessel puncture site thrombosis ([4]; 20 mg (N = 8)): 0 n (%) | Participants with at least one TEAE ([4]; Overall (N = 8)): 7 (87.5%) n (%) | TEAE: Dry eye ([4]; Overall (N = 8)): 3 (37.5%) n (%) | TEAE: Eye disorders ([4]; Overall (N = 8)): 3 (37.5%) n (%) | TEAE: Headache ([4]; Overall (N = 8)): 3 (37.5%) n (%) | TEAE: Lethargy ([4]; Overall (N = 8)): 2 (25.0%) n (%) | TEAE: Medical device site dermatitis ([4]; Overall (N = 8)): 3 (37.5%) n (%) | TEAE: Nervous System Disorders ([4]; Overall (N = 8)): 3 (37.5%) n (%) | TEAE: Vessel puncture site thrombosis ([4]; Overall (N = 8)): 2 (25.0%) n (%) | Participants with at least one TEAE ([5]; human, in vivo, 31 days): 12 (100%)^ n (%) | TEAE: Cardiac Disorders ([5]; human, in vivo, 31 days): 4 (33.3%) n (%) | TEAE: Chest discomfort ([5]; human, in vivo, 31 days): 2 (16.7%) n (%) | TEAE: Dizziness ([5]; human, in vivo, 31 days): 3 (25.0%) n (%) | TEAE: General Disorders and Administration Site Conditions ([5]; human, in vivo, 31 days): 6 (50.0%) n (%) | TEAE: Headache ([5]; human, in vivo, 31 days): 2 (16.7%) n (%) | TEAE: Intoxicated sensation ([5]; human, in vivo, 31 days): 2 (16.7%) n (%) | TEAE: Medical device site dermatitis ([5]; human, in vivo, 31 days): 3 (25.0%) n (%) | TEAE: Nervous System Disorders ([5]; human, in vivo, 31 days): 5 (41.7%) n (%) | TEAE: Palpitations ([5]; human, in vivo, 31 days): 2 (16.7%) n (%) | SAEs and severe AEs ([5]; in vivo): no SAEs and no severe AEs | Dose levels well-tolerated with a titrated dosing schedule ([5]; titration 20 to 120 mg per day, no maximum tolerated dosage identified): ≤ 120 mg per day | Increase of Cmax and AUC24 above values of a lower dosage not tolerated without titration [6]: 2-3 fold

CC1(C)O[C@@H]2[C@@H](CO[C@@]3(COS(N)(=O)=O)OC(C)(C)O[C@@H]23)O1 [topiramate]
Efficacy for treating essential tremors in clinical trials (essential tremor): effective

NS(=O)(=O)Cc1noc2ccccc12 [zonisamide]
Efficacy for treating essential tremors in clinical trials (essential tremor): effective
